# Laboratory results published in patent US10933068B2, “Modulators of DUX4 for regulation of muscle function” (GENEA BIOCELLS USA (HOLDINGS), INC., priority 2016, dated 2021).
# Key:
# [1] = tested on: Normal cell lines (Genea 002 and Genea 015) and an FSHD-affected cell line (Genea 096); experiment: Phenotypic marker screen (Example 2): cell count / toxicity; format: cell-based, human; details: compound added for 24 hours; for toxicity (cell count): analyzed at the end of the myotube stage, cell lines tested overall
# Procedure: (§1) Briefly, stem cell lines were cultured in commercially available media, mTeSR (Stem Cell Technologies) or M2 (Genea Biocells) and dissociated into single cells using Passaging Solution (Genea Biocells). Cells were plated in Myogenic Induction Medium to induce myogenic differentiation and incubated at 37° C. and 5% CO2 for 7 to 10 days while performing media changes every other day. Once confluent, cells were dissociated into single cells using Passaging Solution and replated in Myoblast Medium (Genea Biocells) while performing media changes every other day. After 7-10 days the medium was switched to Myotube Medium (Genea Biocells) without any further media changes.
# In one example, experiments are set up according to Example 1 with cells being cultured in collagen 1-coated optical bottom 96-well plates. At the end of the culture period cells are fixed with 4% formalin and immunofluorescence stained for DUX4, Ki67, MyoD and/or MF20 or MHC. […] Staining with MF20 or MHC is used to visualize myotube morphology. High-content screening is performed to quantitatively measure the proportion of DUX4, Ki67 and MyoD-positive cells as well as myotube diameter and the number of nuclei per myotube.
# (§2) Normal cell lines (Genea 002 and Genea 015) and an FSHD-affected cell line (Genea 096) were cultured and differentiated according to Example 1. Compounds were added for 24 hours either at the beginning of the myoblast stage or at the end of the myoblast stage. Cells were further differentiated to myotubes and analyzed 7 days later at the end of the myotube stage (see FIG. 2) by immunofluorescence staining for MyoD, Ki67 and MF20.
# [2] = tested on: normal (Genea016) and FSHD-affected (Genea049 and Genea050) cell lines; experiment: Timing of compound contact: cell counts; format: cell-based, human
# Procedure: as §1, with “changes. After 4-7 days many multi-nucleated myotubes were observed and the cells were analyzed using a suitable assay.” for “changes.”
# (§3) In another example, normal (Genea016) and FSHD-affected (Genea049 and Genea050) cell lines were differentiated according to Example 1. A DNA methyltransferase inhibitor (Compound #1) (ASK10) or a histone methyltransferase inhibitor (Compound #2) (ASK19) was added for 24 hours either at the beginning of the myoblast stage (Group 1) or at the end of the myoblast stage (Group 2). Cells were further differentiated to myotubes and analyzed 7 days later at the end of the myotube stage (see FIG. 2). Effects on cell counts (FIGS. 11A and 11B) and MF20-positive myotubes (FIGS. 12A and 12B) were assessed.
# [3] = tested on: Genea049 reporter cell line; experiment: Cell death / overall cell numbers by video microscopy; format: cell-based, human; details: 24 hours pulse at the beginning of the myoblast stage
# Procedure: In another example, Genea049 reporter cell line was differentiated according to Example 1 and the compounds were added for 24 hours at the beginning of the myoblast stage. Cells were further differentiated to myotubes (see FIG. 2) and analyzed continuously by video fluorescence microscopy using an Incucyte Zoom instrument (Essen Bioscience).
# DUX4-GFP reporter [4] = experiment: Chemically induced DUX4-GFP reporter induction (ASK10 and analogs); format: cell-based, human
# Description: Cells were transduced with a lentivirus coding for a synthetic DUX4-responsive promoter driving a nuclear turboGFP reporter gene ([…] et al., 2015) and selected using G418 antibiotic (Thermo Fisher). Myogenic differentiation was induced using the Genea Biocells muscle differentiation protocol (Caron et al., 2016). […] Media was changed every other day for 10 days. Myogenic precursors were then re-seeded by treatment with Passaging Solution (Genea Biocells) followed by Neutralizing Solution (Genea Biocells), were pelleted, and were plated at 2500 cells/cm2 in Stage 2 Myoblast Medium (Genea Biocells). […] After treatment, confluent myoblasts were switched to Stage 3 Myotube Medium (Genea Biocells). Cells were imaged hourly for phase and DUX4-GFP reporter fluorescence with the Incucyte live cell imaging system (Essen Bioscience) and Incucyte analysis software reported GFP+ events/mm2. […] Nuclei were quantified using the In Cell 6000 imaging and analysis suite. The system as described herein can be used as a sensitive low-, medium- or high-throughput screening assay to identify compounds that suppress DUX4 following an experimental procedure as outlined in FIG. 19. […] Test compounds are added either at the beginning of differentiation stage 2 or stage 3 and may be present throughput the experiment.
# [5] = tested on: FSHD-affected Gen049 human Embryonic Stem Cells (hESCs); experiment: ASK10 cytotoxicity in DUX4-GFP induction experiments; format: cell-based; details: FIG. 11A cited
# Description: Precursors were then converted to myoblasts by culture in Stage 2 Medium for 7 days with media changes every second day until confluence. […] After treatment, confluent myoblasts were switched to Stage 3 Myotube Medium (Genea Biocells). Cells were imaged hourly for phase and DUX4-GFP reporter fluorescence with the Incucyte live cell imaging system (Essen Bioscience) and Incucyte analysis software reported GFP+ events/mm2. […] Nuclei were quantified using the In Cell 6000 imaging and analysis suite.
# DUX4 expression = experiment: Chaetocin induction of DUX4 expression, immunofluorescence staining; format: cell-based, human; details: myotubes from FSHD-affected cell lines, DUX4 E5-5 antibody
# Procedure: as §1, with “changes. After 4-7 days many multi-nucleated myotubes were observed and the cells were analyzed using a suitable assay.” for “changes.”
# (§4) In myotubes from FSHD-affected cell lines DUX4 expression was observed by immunofluorescence staining using DUX4 E5-5 antibody, either spontaneously or by transfecting cells with a DUX4 expression vector (FIG. 3). In some cases, the expression of DUX4 in myogenic cells may be a rare event. Thus, to increase the assay window and sensitivity, chaetocin was used to increase the number of cells expressing DUX4 (FIG. 4A). […] In some examples, compounds may be screened in the presence of 50-200 nM chaetocin, a compound described to result in elevated levels of DUX4 expression in human myoblast cultures (FIG. 2).
# [6] = tested on: myotubes from FSHD-affected cell lines; experiment: Chaetocin toxicity, total nuclei count; format: cell-based, human; details: at 50-100 nM
# Procedure: as §4
# [7] = tested on: Normal cell lines (Genea 002 and Genea 015) and an FSHD-affected cell line (Genea 096); experiment: Phenotypic marker screen (Example 2): myogenesis, MF20 and myotube length; format: cell-based, human; details: compound added for 24 hours
# Procedure: as §1
# In one example, experiments are set up according to Example 1 with cells being cultured in collagen 1-coated optical bottom 96-well plates. […] High-content screening is performed to quantitatively measure the proportion of DUX4, Ki67 and MyoD-positive cells as well as myotube diameter and the number of nuclei per myotube.
# as §2, with “Compounds were added for 24 hours either at the beginning of the myoblast stage or at the end of the myoblast stage.” left out
# [8] = tested on: normal (Genea016) and FSHD-affected (Genea049 and Genea050) cell lines; experiment: Timing of compound contact: MF20-positive myotubes; format: cell-based, human; details: 24 hours treatment, analyzed at the end of the myotube stage
# Procedure: as §1, with “changes. After 4-7 days many multi-nucleated myotubes were observed and the cells were analyzed using a suitable assay.” for “changes.”
# as §3
# [9] = tested on: DUX4 reporter in the FSHD-affected Genea049 reporter cell line; experiment: DUX4 reporter, high-content imaging; format: cell-based, human; details: added for 24 hours at the end of the myoblast stage; analyzed 7 days later
# Procedure: (§5) Lentivirus constructs were used to stably integrate a DUX4 reporter into human embryonic stem cell lines (FIG. 5). Cells were plated in collagen I-coated 12-well plates (Corning BIOCOAT™-Cat #354500) in M2 hESC maintenance medium (Genea Biocells). Since cell lines grow at different rates and may optimally transduce at distinct cell densities, each line was plated at four different cell densities and transduced for 2 hours using a vector preparations diluted at 1:20 (50 ul/ml) in M2 medium containing 8 ug/ml polybrene. A pilot “kill curve” was established using the same non-transfected cell lines to help define the baseline antibiotic concentration required during the selection process. Based on the results, all transduced cells were selected with 300 ug/ml of G418 for at least 10 days. The antibiotic selected cells were further expanded in M2 (2× T175 flasks for each cell line) and samples were cryopreserved as stocks of 0.5 to 1×10^6 cells/vial.
# In another example, Genea049 reporter cell line was differentiated according to Example 1 and the compounds were added for 24 hours at the end of the myoblast stage. Cells were further differentiated to myotubes and analyzed 7 days later at the end of the myotube stage (see FIG. 2) by fixation, counterstaining nuclei with Hoechst and visualizing nuclei and the reporter by high-content imaging.
# [10] = tested on: DUX4 reporter in the FSHD-affected Genea049 reporter cell line; experiment: DUX4 reporter, time-lapse video fluorescence microscopy; format: cell-based, human; details: added for 24 hours at the beginning of the myoblast stage; analyzed continuously
# Procedure: as §5
# In another example, experiments are set up according to Example 1 with FSHD-affected DUX4 reporter cells being cultured in collagen I-coated 96-well plates. […] The cells are continuously observed by time-lapse video microscopy (IncuCyte Zoom, Essen Bioscience) and the number of GFP-positive (DUX4-expressing) nuclei are detected and quantified throughout the culture period. […]
# DUX4-GFP reporter [11] = experiment: Rescue of ASK10- / ASK10 analog-induced DUX4-GFP by ASK19 pre-treatment; format: cell-based, human
# Procedure: Genea's FSHD-affected Gen049 human Embryonic Stem Cells (hESCs) were cultured on geltrex (Thermo Fisher) using the feeder-free mTeSR system (StemCell Technologies). Cells were transduced with a lentivirus coding for a synthetic DUX4-responsive promoter driving a nuclear turboGFP reporter gene (Rickard et al., 2015) and selected using G418 antibiotic (Thermo Fisher). Myogenic differentiation was induced using the Genea Biocells muscle differentiation protocol (Caron et al., 2016). Reporter stem cells were treated with Accutase (StemCell Technologies) and plated as single cells at 5200 cells/cm2, then changed to Stage 1 Myogenic Induction Medium (Genea Biocells). Media was changed every other day for 10 days. Myogenic precursors were then re-seeded by treatment with Passaging Solution (Genea Biocells) followed by Neutralizing Solution (Genea Biocells), were pelleted, and were plated at 2500 cells/cm2 in Stage 2 Myoblast Medium (Genea Biocells).
# In rescue experiments, Stage 2 Day 1 cells were then treated with either 1 uM ASK19 or DMSO vehicle for 24 hours. Precursors were then converted to myoblasts by culture in Stage 2 Medium for 7 days with media changes every second day until confluence. Myoblasts were passaged and seeded at 9000 cells/cm2 in 96 well format, allowed to grow to confluence, and treated in Stage 2 Medium for indicated time (0-48 hours) with 0.01 uM-3 uM of ASK10, ASK10 analog, DMSO vehicle, or media only (FIGS. 15A-15B). After treatment, confluent myoblasts were switched to Stage 3 Myotube Medium (Genea Biocells). Cells were imaged hourly for phase and DUX4-GFP reporter fluorescence with the Incucyte live cell imaging system (Essen Bioscience) and Incucyte analysis software reported GFP+ events/mm2. After imaging, cells were fixed in 10% Formalin (Thermo Fisher) for 15 minutes and stained for 2 hours using PBS (Invitrogen) with 5% BSA (Thermo Fisher), 0.25% Triton-X (Thermo Fisher), and 1:5000 Hoechst (Thermo Fisher) DNA dye. Nuclei were quantified using the In Cell 6000 imaging and analysis suite.
smiles,measurement,setting,value
"Nc1ncn([C@H]2C[C@H](O)[C@@H](CO)O2)c(=O)n1 [ASK10, decitabine]",toxicity (cell count),[1],highly toxic at higher doses
same,toxicity to FSHD-affected cells,[1]; FSHD-affected cells (Genea 096),less so
same,"toxicity, normal versus FSHD-affected myoblasts",[2]; 24 hours treatment,much more toxic for normal myoblasts than for FSHD-affected myoblasts
same,"toxicity (cell counts), FSHD","[2]; added at the end of the myoblast stage (Group 2), FSHD",not toxic
same,"toxicity (cell counts), normal","[2]; added at the end of the myoblast stage (Group 2), normal",only mildly toxic
same,toxicity (cell counts),[2]; added for 24 hours at the beginning of the myoblast stage (Group 1),significant toxicity at higher doses
same,time of cell death after the compound had been removed,[3],6 to 7 days
same,EC50,"DUX4-GFP reporter [4]; Homo sapiens, DUX4-GFP cell number per well, read-out: EC50 at which the most significant DUX4 expression induction was detected",≥ 1000 nM
same,DUX4 expression activation versus vehicle control,DUX4-GFP reporter [4]; about 48 hours post-exposure,12-15 fold
same,time at which DUX4 induction plateaus,DUX4-GFP reporter [4]; post-exposure,about 120 hours
same,cytotoxicity,[5],did not display any noticeable cytotoxicity
CN1C(=O)[C@@]23C[C@]4([C@]56C[C@@]78SS[C@@](CO)(C(=O)N7[C@H]5Nc5ccccc56)N(C)C8=O)c5ccccc5N[C@@H]4N2C(=O)[C@]1(CO)SS3 [chaetocin],chaetocin concentration found to induce DUX4 expression,DUX4 expression,50 to 100 nM
same,toxicity,[6],only mild toxicity
"CC[C@H](C)n1cc(C)c2c(C(=O)NCc3c(C)cc(C)[nH]c3=O)cc(-c3ccc(N4CCNCC4)nc3)cc21 [ASK19, GSK126]",toxicity (cell count),[1],not toxic
same,"myogenesis, cells expressing MF20",[7]; analyzed at the end of the myotube stage,more MF20-positive cells
same,myotube length,[7]; all cell lines tested,longer myotubes
same,toxicity (cell counts),[2]; any of the cell lines under any treatment regimen,not toxic
same,MF20-positive myotubes (myogenesis),[8],dose-dependent increase
same,DUX4-positive cells,[9],no effect
same,DUX4-positive cells,[10],suppressed DUX4 expression and/or function
same,EC50,"DUX4-GFP reporter [11]; ASK10- and ASK10-15-induced, tentative, read-out: EC50 of rescue of induced DUX4-GFP production",250 to 500 nM
same,"GFP+ events over time, ASK19/ASK10 curve","DUX4-GFP reporter [11]; ASK19 pre-treatment then ASK10, FIG. 18",extends along the bottom of the graph
same,"GFP+ events over time, ASK19/ASK10-15 curve","DUX4-GFP reporter [11]; ASK19 pre-treatment then ASK10-15, FIG. 18",extends along the bottom of the graph
same,rescue of ASK10- and ASK10 analog-induced DUX4 activation,DUX4-GFP reporter [11]; pre-treatment with ASK19,rescues
